This assay has as its system P388 leukemia ip, CD2F1 mice, survival T/C. The assay is described as follows: NCI In Vivo Anticancer Drug Screen. Data for tumor model P388 Leukemia (intraperitoneal) in CD2F1 (CDF1) mice. The following applies: endpoint: median survival time, higher = longer survival. Put shortly:
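Mice carrying the transplanted tumor received test compound or vehicle. Survival was recorded in each group, and the value is the treated-group measurement divided by that of the vehicle-treated control group.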

The mark [1] stands for this setting: dose: 50.0 mg/kg/injection, schedule: Q01DX009 (ip), vehicle: saline with Tween-80.
The mark [2] stands for this setting: dose: 100.0 mg/kg/injection, schedule: Q01DX009 (ip), vehicle: saline with Tween-80.
Setting [3] is: dose: 25.0 mg/kg/injection, schedule: Q01DX009 (ip), vehicle: distilled water + Tween-80.
The mark [4] stands for this setting: dose: 50.0 mg/kg/injection, schedule: Q01DX009 (ip), vehicle: distilled water + Tween-80.
[5] abbreviates: dose: 100.0 mg/kg/injection, schedule: Q01DX009 (ip), vehicle: distilled water + Tween-80.
Where [6] appears, read: dose: 200.0 mg/kg/injection, schedule: Q01DX009 (ip), vehicle: distilled water + Tween-80.
The mark [7] stands for this setting: dose: 50.0 mg/kg/injection, schedule: Q01DX005 (ip), vehicle: saline with Tween-80.
[8] abbreviates: dose: 100.0 mg/kg/injection, schedule: Q01DX005 (ip), vehicle: saline with Tween-80.
The mark [9] stands for this setting: dose: 200.0 mg/kg/injection, schedule: Q01DX005 (ip), vehicle: saline with Tween-80.
The mark [10] stands for this setting: dose: 60.0 mg/kg/injection, schedule: Q01DX005 (ip), vehicle: saline with Tween-80.
[11] abbreviates: dose: 120.0 mg/kg/injection, schedule: Q01DX005 (ip), vehicle: saline with Tween-80.
Where [12] appears, read: dose: 240.0 mg/kg/injection, schedule: Q01DX005 (ip), vehicle: saline with Tween-80.
[13] abbreviates: dose: 12.5 mg/kg/injection, schedule: Q01DX009 (ip), vehicle: water.
Where [14] appears, read: dose: 50.0 mg/kg/injection, schedule: Q01DX005 (ip), vehicle: Klucel (hydroxypropylcellulose) (HPC).
Where [15] appears, read: dose: 100.0 mg/kg/injection, schedule: Q01DX005 (ip), vehicle: Klucel (hydroxypropylcellulose) (HPC).
Where [16] appears, read: dose: 200.0 mg/kg/injection, schedule: Q01DX005 (ip), vehicle: Klucel (hydroxypropylcellulose) (HPC).
Where [17] appears, read: dose: 25.0 mg/kg/injection, schedule: Q01DX005 (ip), vehicle: Klucel (hydroxypropylcellulose) (HPC).

“And” between values parts separate entries of the source, which are not always exact repeats. Equal entries are not always repeated. Inconclusive results and toxic doses are left out.

With `CCCCCCCCCCCC(=O)N(CCOC(=O)c1ccco1)CCOC(=O)c1ccco1`, the T/C is 108 % of control under setting [1]; 91 % of control under setting [2]; 87 % of control (dose: 200.0 mg/kg/injection, schedule: Q01DX009 (ip), vehicle: saline with Tween-80).
For the compound `COC(=O)NC(=S)Nc1nncs1`, the T/C runs as follows: (dose: 25.0 mg/kg/injection, schedule: Q04DX003 (ip), vehicle: saline with Tween-80) 101 % of control; (dose: 50.0 mg/kg/injection, schedule: Q04DX003 (ip), vehicle: saline with Tween-80) 105 % of control; (dose: 100.0 mg/kg/injection, schedule: Q04DX003 (ip), vehicle: saline with Tween-80) 105 % of control.
Regarding `CNC(=O)OCc1c(COC(=O)NC)c(-c2ccc(Cl)c(Cl)c2)n2c1Cc1ccccc1C2`, the T/C reads like this: under setting [3], 153 % of control and 160 % of control; under setting [4], 155 % of control and 195 % of control; under setting [5], 171 % of control and 189 % of control; under setting [6], 117 % of control and 97 % of control.
As to `COc1cc([C@@H]2c3cc4c(cc3[C@H](O)[C@H]3COC[C@@H]23)OCO4)cc(OC)c1OC`, the T/C is 103 % of control under setting [7], 108 % of control under setting [8] and 103 % of control under setting [9].
As to `Nc1ccc(O)c2c1C(=O)c1ccccc1C2=O`, the T/C was 93 % of control under setting [7], 111 % of control under setting [8] and 101 % of control under setting [9].
Turning to `O=C(Cc1nc2cc(Cl)c(Cl)cc2nc1CC(=O)c1cccnc1)c1cccnc1`, the T/C reads like this: under setting [10], 110 % of control; under setting [11], 103 % of control; under setting [12], 100 % of control.
Regarding `COc1cc(O)c2c(=O)c3c(O)c(O)ccc3oc2c1`, the T/C was 108 % of control (dose: 0.63 mg/kg/injection, schedule: Q01DX009 (ip), vehicle: saline); 110 % of control (dose: 1.25 mg/kg/injection, schedule: Q01DX009 (ip), vehicle: saline); 101 % of control (dose: 2.5 mg/kg/injection, schedule: Q01DX009 (ip), vehicle: saline); 100 % of control (dose: 5.0 mg/kg/injection, schedule: Q01DX009 (ip), vehicle: saline).
As for `O=C1CCNN1c1ccccc1`, the T/C is, setting by setting: under setting [13], 100 % of control; (dose: 25.0 mg/kg/injection, schedule: Q01DX009 (ip), vehicle: water) 103 % of control; (dose: 50.0 mg/kg/injection, schedule: Q01DX009 (ip), vehicle: water) 100 % of control; (dose: 100.0 mg/kg/injection, schedule: Q01DX009 (ip), vehicle: water) 103 % of control; (dose: 200.0 mg/kg/injection, schedule: Q01DX009 (ip), vehicle: water) 106 % of control.
Take `COC(c1nc(N)no1)c1c(Cl)cccc1Cl` (stereo not given): the T/C by setting is: under setting [14], 97 % of control; under setting [15], 91 % of control; under setting [16], 92 % of control.
Take `CCN(CC)CCCC(C)NCC#CCNC(C)CCCN(CC)CC` (stereo not given): the T/C runs as follows: (dose: 1.56 mg/kg/injection, schedule: Q01DX009 (ip), vehicle: water) 105 % of control; (dose: 3.13 mg/kg/injection, schedule: Q01DX009 (ip), vehicle: water) 108 % of control; (dose: 6.25 mg/kg/injection, schedule: Q01DX009 (ip), vehicle: water) 104 % of control; under setting [13], 105 % of control.
As for `CN(C)CC(CN(C)C)C(=O)c1ccc(Oc2ccc(Cl)c(Cl)c2)cc1`, the T/C runs as follows: (dose: 1.88 mg/kg/injection, schedule: Q01DX005 (ip), vehicle: saline) 107 % of control; (dose: 3.75 mg/kg/injection, schedule: Q01DX005 (ip), vehicle: saline) 109 % of control; (dose: 7.5 mg/kg/injection, schedule: Q01DX005 (ip), vehicle: saline) 117 % of control.
On to `CC(C)CC(NC(c1ccccc1)P(=O)(O)O)C(=O)O` (stereo not given), for which the T/C reads like this: under setting [10], 100 % of control; under setting [11], 96 % of control; under setting [12], 91 % of control.
Turning to `COc1cc2ccnc(/C=N\O)c2cc1OC`, the T/C was 102 % of control (dose: 12.5 mg/kg/injection, schedule: Q01DX009 (ip), vehicle: distilled water + Tween-80); 116 % of control under setting [3]; 109 % of control under setting [4]; 102 % of control under setting [5]; 91 % of control under setting [6]; 93 % of control (dose: 400.0 mg/kg/injection, schedule: Q01DX009 (ip), vehicle: distilled water + Tween-80).
Take `NC(=S)c1ccc(N=Cc2ccc(Cl)cc2)cc1`: the T/C by setting is: (dose: 50.0 mg/kg/injection, schedule: Q01DX001 (ip), vehicle: Klucel (hydroxypropylcellulose) (HPC)) 97 % of control; (dose: 100.0 mg/kg/injection, schedule: Q01DX001 (ip), vehicle: Klucel (hydroxypropylcellulose) (HPC)) 100 % of control; (dose: 200.0 mg/kg/injection, schedule: Q01DX001 (ip), vehicle: Klucel (hydroxypropylcellulose) (HPC)) 102 % of control.
For the compound `COc1cccc2c(NCCCCCO[N+](=O)[O-])cc[n+](C)c12`, the T/C by setting is: (dose: 12.5 mg/kg/injection, schedule: Q01DX009 (ip), vehicle: Klucel (hydroxypropylcellulose) (HPC)) 104 % of control; (dose: 25.0 mg/kg/injection, schedule: Q01DX009 (ip), vehicle: Klucel (hydroxypropylcellulose) (HPC)) 110 % of control; (dose: 50.0 mg/kg/injection, schedule: Q01DX009 (ip), vehicle: Klucel (hydroxypropylcellulose) (HPC)) 107 % of control.
With `NC(CSC1(c2cccc3ccccc23)c2ccccc2-c2ccccc21)C(=O)O` (stereo not given), the T/C runs as follows: (dose: 60.0 mg/kg/injection, schedule: Q01DX005 (ip), vehicle: Klucel (hydroxypropylcellulose) (HPC)) 93 % of control; (dose: 120.0 mg/kg/injection, schedule: Q01DX005 (ip), vehicle: Klucel (hydroxypropylcellulose) (HPC)) 90 % of control; (dose: 240.0 mg/kg/injection, schedule: Q01DX005 (ip), vehicle: Klucel (hydroxypropylcellulose) (HPC)) 88 % of control.
In the case of `Cn1c(=O)c2nnn(-c3ccccc3)c2n(C)c1=O`, the T/C is 100 % of control (dose: 45.0 mg/kg/injection, schedule: Q01DX009 (ip), vehicle: saline with Tween-80); 115 % of control (dose: 90.0 mg/kg/injection, schedule: Q01DX009 (ip), vehicle: saline with Tween-80); 100 % of control (dose: 180.0 mg/kg/injection, schedule: Q01DX009 (ip), vehicle: saline with Tween-80).
Regarding `COc1ccc(NC(=O)NNC(N)=S)cc1`, the T/C was 96 % of control under setting [1] and 91 % of control under setting [2].
Consider `O=C1c2ccccc2C(=O)N1/N=[N+](\[O-])N1CCOCC1`, for which the T/C was 90 % of control under setting [17], 99 % of control under setting [14], 90 % of control under setting [15] and 101 % of control under setting [16].
For the compound `CCCCCCCCCCNCCSSCc1ccc(OC)cc1`, the T/C reads like this: (dose: 6.25 mg/kg/injection, schedule: Q01DX005 (ip), vehicle: Klucel (hydroxypropylcellulose) (HPC)) 103 % of control; (dose: 12.5 mg/kg/injection, schedule: Q01DX005 (ip), vehicle: Klucel (hydroxypropylcellulose) (HPC)) 103 % of control; under setting [17], 100 % of control.
Take `COC(=O)C(Sc1ccc(Cl)cc1)C1SC(=S)N(C)C1=O` (stereo not given): the T/C reads like this: (dose: 12.5 mg/kg/injection, schedule: Q01DX009 (ip), vehicle: saline with Tween-80) 96 % of control; (dose: 25.0 mg/kg/injection, schedule: Q01DX009 (ip), vehicle: saline with Tween-80) 116 % of control and 88 % of control; under setting [1], 104 % of control and 112 % of control; under setting [2], 103 % of control and 107 % of control.
For the compound `O=C(Cc1ccccc1)N1CCc2cc3c(cc2C1Cc1cc2c(cc1Br)OCO2)OCO3` (stereo not given), the T/C runs as follows: (dose: 12.5 mg/kg/injection, schedule: Q01DX001 (ip), vehicle: saline + alcohol) 98 % of control; (dose: 25.0 mg/kg/injection, schedule: Q01DX001 (ip), vehicle: saline + alcohol) 99 % of control; (dose: 50.0 mg/kg/injection, schedule: Q01DX001 (ip), vehicle: saline + alcohol) 100 % of control.

These data come from PubChem BioAssay AID330 (DTP/NCI, 2004).
